Converted amounts (≈) assume the structure as drawn.
What was measured:
[1] = test system: Mycobacterium tuberculosis; test: Antimycobacterial activity against Mycobacterium tuberculosis H37Rv after 14 days by broth dilution method; assay type: functional; details: 336 h
[2] = Growth inhibition of human HCT116 cells at 50 uM by MTT assay relative to control; assay type: cell-based, HCT-116; details: read-out: GI
[3] = Growth inhibition of human MCF7 cells at 50 uM by MTT assay relative to control; assay type: cell-based; details: read-out: GI
[4] = Growth inhibition of human HCT116 cells at 1 to 40 uM by MTT assay relative to control; assay type: cell-based, HCT-116; details: read-out: GI
[5] = Growth inhibition of human PC3 cells at 1 to 40 uM by MTT assay relative to control; assay type: cell-based, PC-3; details: read-out: GI
[6] = Growth inhibition of HEK293 cells at 50 uM by MTT assay relative to control; assay type: cell-based; details: human, read-out: GI
[7] = Growth inhibition of human MCF7 cells at 1 to 40 uM by MTT assay relative to control; assay type: cell-based; details: read-out: GI
[8] = Growth inhibition of HEK293 cells at 1 to 40 uM by MTT assay relative to control; assay type: cell-based; details: human, read-out: GI
[9] = Growth inhibition of human PC3 cells at 50 uM by MTT assay relative to control; assay type: cell-based, PC-3; details: read-out: GI
[10] = Selectivity ratio of MIC for Mycobacterium smegmatis to MIC for Mycobacterium tuberculosis; assay type: functional
[11] = test system: Mycolicibacterium smegmatis; test: Antimycobacterial activity against Mycobacterium smegmatis; assay type: functional
[12] = test system: Mycobacterium tuberculosis; test: Antimycobacterial activity against Mycobacterium tuberculosis; assay type: functional
[13] = test system: Mycolicibacterium smegmatis; test: Antimycobacterial activity against Mycobacterium smegmatis ATCC 607 after 24 hrs; assay type: functional; details: ATCC 607, 24 h
[14] = test system: Micrococcus luteus; test: Antibacterial activity against Micrococcus luteus ATCC 10240 after 24 hrs; assay type: functional; details: ATCC 10240, 24 h
[15] = test system: Enterococcus faecalis; test: Antibacterial activity against Enterococcus faecalis ATCC 51299 after 24 hrs; assay type: functional; details: ATCC 51299, 24 h
[16] = test system: Staphylococcus aureus; test: Antibacterial activity against Staphylococcus aureus ATCC 25923 after 24 hrs; assay type: functional; details: ATCC 25923, 24 h
[17] = test system: Staphylococcus epidermidis; test: Antibacterial activity against Staphylococcus epidermidis ATCC 12228 after 24 hrs; assay type: functional; details: ATCC 12228, 24 h
[18] = test system: Bacillus subtilis; test: Antibacterial activity against Bacillus subtilis ATCC 11774 after 24 hrs; assay type: functional; details: ATCC 11774, 24 h
[19] = test system: Klebsiella pneumoniae; test: Antibacterial activity against Klebsiella pneumoniae ATCC BAA-2146 after 24 hrs; assay type: functional; details: ATCC BAA-2146, 24 h
[20] = test system: Pseudomonas aeruginosa; test: Antibacterial activity against Pseudomonas aeruginosa ATCC 10145 after 24 hrs; assay type: functional; details: ATCC 10145, 24 h
[21] = test system: Escherichia coli; test: Antibacterial activity against Escherichia coli 10536 after 24 hrs; assay type: functional; details: Escherichia coli, 10536, 24 h
[22] = test system: HEK293; test: Growth inhibition of HEK293 cells up to 80 uM by MTT assay relative to control; assay type: cell-based; details: human

CC[C@@H](CO)NCCN[C@@H](CC)CO [ETHAMBUTOL]
MIC [1]: 1.25 mg/L (≈ 6.12 µM)

CC1(C)CC(=O)C(=CNc2ccc([N+](=O)[O-])cc2F)C(=O)C1
MIC [1]: 80 mg/L (≈ 261 µM)

O=C1CC(c2ccco2)CC(=O)C1=CNc1ccccc1O (stereo not drawn)
inhibition at 50 µM [2]: 42.8% | inhibition at 50 µM [3]: 2.92% | inhibition at up to 40 µM [4]: < 20% | inhibition at up to 40 µM [5]: < 20% | inhibition at 50 µM [6]: 46.4% | inhibition at up to 40 µM [7]: < 20% | MIC [1]: 10 to 20 mg/L (≈ 33.6 to 67.3 µM) | inhibition at up to 40 µM [8]: < 20% | inhibition at 50 µM [9]: 26.1%

CC1(C)CC(=O)C(=CNc2ccccc2[N+](=O)[O-])C(=O)C1
MIC [1]: > 80 mg/L

CC1(C)CC(=O)C(=CSc2ccccc2O)C(=O)C1
MIC [1]: 40 to 80 mg/L (≈ 145 to 289 µM)

CC1(C)CC(=O)C(=CNc2ccc(Cl)cc2)C(=O)C1
MIC [1]: > 80 mg/L

O=C1CCC(=O)C1=CNc1ccc([N+](=O)[O-])cc1F
MIC [1]: > 80 mg/L

CC1(C)CC(=O)C(=CNc2cccc3ccccc23)C(=O)C1
MIC [1]: > 80 mg/L

CCCN(C=C1C(=O)CC(C)(C)CC1=O)CCC
MIC [1]: > 80 mg/L

CC1(C)CC(=O)C(=CNc2ccccc2Br)C(=O)C1
MIC [1]: > 80 mg/L

O=C1CCCC(=O)C1=CNc1ccccc1O
inhibition at 50 µM [2]: 10.6% | inhibition at 50 µM [3]: 14.5% | inhibition at up to 40 µM [4]: < 20% | inhibition at up to 40 µM [5]: < 20% | inhibition at 50 µM [6]: 28.3% | inhibition at up to 40 µM [7]: < 20% | MIC [1]: 5 to 10 mg/L (≈ 21.6 to 43.2 µM) | inhibition at up to 40 µM [8]: < 20% | inhibition at 50 µM [9]: 29.5%

CC1(C)CC(=O)C(=CNc2ccc([N+](=O)[O-])cc2)C(=O)C1
MIC [1]: > 80 mg/L

CC1(C)CC(=O)C(=CNc2ccccc2)C(=O)C1
MIC [1]: > 80 mg/L

NNC(=O)c1ccncc1 [ISONIAZID]
Selectivity ratio [10]: 500 to 1000 | MIC [11]: 25 mg/L (≈ 182 µM) | MIC [12]: 0.02 mg/L (≈ 0.146 µM) | MIC [1]: 0.313 mg/L (≈ 2.28 µM)

CC1(C)CC(=O)C(=CNc2ccccc2O)C(=O)C1
MIC [13]: > 80 mg/L | inhibition at 50 µM [2]: 20.2% | inhibition at 50 µM [3]: 15.1% | inhibition at up to 40 µM [4]: < 20% | MIC [14]: 128 mg/L (≈ 494 µM) | MIC [15]: > 128 mg/L | inhibition at up to 40 µM [5]: < 20% | inhibition at 50 µM [6]: 9.03% | inhibition at up to 40 µM [7]: < 20% | MIC [1]: 2.5 mg/L (≈ 9.64 µM) | MIC [16]: > 128 mg/L | inhibition at up to 40 µM [8]: < 20% | MIC [17]: > 128 mg/L | MIC [18]: > 128 mg/L | MIC [19]: > 128 mg/L | MIC [20]: > 128 mg/L | MIC [21]: 32 to 64 mg/L (≈ 123 to 247 µM) | growth inhibition (GI) [22]: < 20% | inhibition at 50 µM [9]: 10.1%

O=C1CCCC(=O)C1=CNc1ccc([N+](=O)[O-])cc1Cl
MIC [1]: 40 to 80 mg/L (≈ 136 to 271 µM)

CCCNC=C1C(=O)CC(C)(C)CC1=O
MIC [1]: > 80 mg/L

CO[C@H]1/C=C/O[C@@]2(C)Oc3c(C)c(O)c4c(O)c(c(/C=N/N5CCN(C)CC5)c(O)c4c3C2=O)NC(=O)/C(C)=C\C=C\[C@H](C)[C@H](O)[C@@H](C)[C@@H](O)[C@@H](C)[C@H](OC(C)=O)[C@@H]1C [RIFAMPIN]
Selectivity ratio [10]: 500 to 1000 | MIC [11]: 100 mg/L (≈ 122 µM) | MIC [12]: 0.2 mg/L (≈ 0.243 µM) | MIC [1]: 0.078 mg/L (≈ 0.0948 µM)

O=C1CC(c2ccccc2)CC(=O)C1=CNc1ccccc1O (stereo not drawn)
inhibition at 50 µM [3]: 16.5% | inhibition at up to 40 µM [4]: < 20% | inhibition at up to 40 µM [5]: < 20% | inhibition at 50 µM [6]: 52.8% | inhibition at up to 40 µM [7]: < 20% | MIC [1]: 5 to 10 mg/L (≈ 16.3 to 32.5 µM) | inhibition at up to 40 µM [8]: < 20% | inhibition at 50 µM [9]: 20.4%

O=C1CCC(=O)C1=CNc1ccc([N+](=O)[O-])cc1Cl
MIC [1]: > 80 mg/L

CC1(C)CC(=O)C(=CNc2cccc([N+](=O)[O-])c2)C(=O)C1
MIC [1]: > 80 mg/L

C[C@H]1COc2c(N3CCN(C)CC3)c(F)cc3c(=O)c(C(=O)O)cn1c23.C[C@H]1COc2c(N3CCN(C)CC3)c(F)cc3c(=O)c(C(=O)O)cn1c23.O [LEVOFLOXACIN]
MIC [13]: 0.156 mg/L | MIC [14]: 0.078 mg/L | MIC [15]: 0.156 mg/L | MIC [1]: 2.5 mg/L | MIC [16]: 0.078 to 0.156 mg/L | MIC [17]: 0.039 to 0.078 mg/L | MIC [18]: 0.39 mg/L | MIC [19]: 0.625 to 1.25 mg/L | MIC [20]: 0.312 to 0.625 mg/L | MIC [21]: 0.078 mg/L

CC1(C)CC(=O)C(=CNc2ccc(F)cc2F)C(=O)C1
MIC [1]: > 80 mg/L

CC1(C)CC(=O)C(=CNc2cccc(C(F)(F)F)c2)C(=O)C1
MIC [1]: > 80 mg/L

CNC=C1C(=O)CC(C)(C)CC1=O
MIC [1]: > 80 mg/L

CCCCCNC=C1C(=O)CC(C)(C)CC1=O
MIC [1]: > 80 mg/L

O=C1CC(c2ccc(Cl)cc2)CC(=O)C1=CNc1ccccc1O (stereo not drawn)
inhibition at 50 µM [2]: 28.6% | inhibition at 50 µM [3]: 23.4% | inhibition at up to 40 µM [4]: < 20% | inhibition at up to 40 µM [5]: < 20% | inhibition at 50 µM [6]: 44% | inhibition at up to 40 µM [7]: < 20% | MIC [1]: 20 mg/L (≈ 58.5 µM) | inhibition at up to 40 µM [8]: < 20% | inhibition at 50 µM [9]: 18.6%

CC1CC(=O)C(=CNc2ccccc2O)C(=O)C1 (stereo not drawn)
inhibition at 50 µM [2]: 35.7% | inhibition at 50 µM [3]: 16.6% | inhibition at up to 40 µM [4]: < 20% | inhibition at up to 40 µM [5]: < 20% | inhibition at 50 µM [6]: 6.08% | inhibition at up to 40 µM [7]: < 20% | MIC [1]: 20 mg/L (≈ 81.5 µM) | inhibition at up to 40 µM [8]: < 20% | inhibition at 50 µM [9]: 8.2%

CC1(C)CC(=O)C(=CNc2ccccc2C(F)(F)F)C(=O)C1
MIC [1]: > 80 mg/L

O=C1CCCC(=O)C1=CNc1ccc([N+](=O)[O-])cc1F
MIC [1]: 80 mg/L (≈ 288 µM)

Cc1ccc(NC=C2C(=O)CC(C)(C)CC2=O)cc1C
MIC [1]: > 80 mg/L

CCCCNC=C1C(=O)CC(C)(C)CC1=O
MIC [1]: > 80 mg/L

CN[C@@H]1[C@H](O[C@H]2[C@H](O[C@H]3[C@H](O)[C@@H](O)[C@H](N=C(N)N)[C@@H](O)[C@@H]3N=C(N)N)O[C@@H](C)[C@]2(O)C=O)O[C@@H](CO)[C@H](O)[C@H]1O [STREPTOMYCIN]
MIC [1]: 1.56 mg/L (≈ 2.68 µM)

Cc1ccc(NC=C2C(=O)CC(C)(C)CC2=O)c(C)c1C
MIC [1]: > 80 mg/L

CC1(C)CC(=O)C(=CNc2ccc(Br)cc2)C(=O)C1
MIC [1]: > 80 mg/L

O=C1CCC(=O)C1=CNc1ccccc1O
MIC [1]: > 80 mg/L

CC1(C)CCC(=O)C(=CNc2ccccc2O)C1=O (mixture of isomers)
inhibition at 50 µM [2]: 60.7% | inhibition at up to 40 µM [4]: < 20% | inhibition at up to 40 µM [5]: < 20% | inhibition at 50 µM [6]: 64.1% | inhibition at up to 40 µM [7]: < 20% | MIC [1]: 10 to 20 mg/L | inhibition at up to 40 µM [8]: < 20% | inhibition at 50 µM [9]: 41.2%

O=C1CCCC(=O)C1=CSc1ccccc1O
MIC [1]: 40 to 80 mg/L (≈ 161 to 322 µM)

Cc1ccc(NC=C2C(=O)CC(C)(C)CC2=O)c(C)c1
MIC [1]: > 80 mg/L

CC1(C)CC(=O)C(=CNCc2ccc(F)cc2)C(=O)C1
MIC [1]: > 80 mg/L

CC1(C)CC(=O)C(=CNc2cc(Cl)c(Cl)cc2Cl)C(=O)C1
MIC [1]: > 80 mg/L

CC1(C)CC(=O)C(=CNc2ccc([N+](=O)[O-])cc2[N+](=O)[O-])C(=O)C1
MIC [1]: > 80 mg/L

CC1(C)CC(=O)C(=CNc2cccc(Br)c2)C(=O)C1
MIC [1]: > 80 mg/L

CC1(C)CC(=O)C(=CNc2ccc([N+](=O)[O-])cc2Cl)C(=O)C1
MIC [1]: > 80 mg/L

Reference: ChEMBL document CHEMBL4257450, “The synthesis, biological evaluation and structure-activity relationship of 2-phenylaminomethylene-cyclohexane-1,3-diones as specific anti-tuberculosis agents” (Medchemcomm, 2017)
